Converted amounts (≈) assume the structure as drawn.

One experiment concerns PC-12. Nature of the experiment: Cytotoxicity against rat PC12 cells assessed as growth inhibition after 72 hrs by MTT assay. The format is functional. The settings on record: PC-12, 72 h. A general note: Formazan colour is commonly taken as a measure of viable cells.
Another experiment relates to HCT-116. Nature of the experiment: Cytotoxicity against human HCT116 cells assessed as growth inhibition after 72 hrs by MTT assay. The class given is functional. The settings on record: HCT-116, 72 h.

As to `COc1ccc([C@@H]2CC(=O)c3c(cc(OC)c(OC)c3O)O2)cc1O`, the GI50 – broadly, the concentration that inhibits growth by half – with PC-12 stood at 2.27 µg/mL (≈ 6.55 µM); in the experiment on HCT-116, 2.87 µg/mL (≈ 8.29 µM).
`CC(=O)O[C@@H]1C[C@@H](C)[C@](O)(CCC2=CC(=O)OC2)[C@@]2(C)CCCC(C)(C)[C@H]12` [VITEXILACTONE]: the GI50 with PC-12 and with HCT-116 was over 5 µg/mL in each case.
Regarding `COc1ccc(-c2oc3cc(OC)c(OC)c(O)c3c(=O)c2OC)cc1OC` [ARTEMETIN], the GI50 in the experiment with PC-12 turned out to be 2.27 µg/mL (≈ 5.84 µM); with HCT-116 it was 2.2 µg/mL (≈ 5.66 µM).
In the same order, the values of `COc1ccc(-c2oc3cc(OC)c(OC)c(O)c3c(=O)c2OC)cc1O` [CASTICIN] are 0.114 µg/mL (≈ 0.305 µM) and 0.119 µg/mL (≈ 0.318 µM).
For `CO[C@H]1C[C@@]2(CC[C@@]3(O2)[C@H](C)C[C@@H](OC(C)=O)[C@H]2C(C)(C)CCC[C@@]23C)[C@H](OC)O1` (relative stereo), in that order: over 5 µg/mL and over 5 µg/mL.
Consider `CC(=O)O[C@@H]1C[C@@H](C)[C@]2(CCC(=O)O2)[C@@]2(C)CCCC(C)(C)[C@H]12`, for which the GI50 in the experiment with PC-12 and in the experiment with HCT-116 was over 5 µg/mL each time.

The values above are taken from ChEMBL document CHEMBL1148123, “New diterpenes and norditerpenes from the fruits of Vitex rotundifolia” (2002).
